# Assay results published in patent US6358885B1, “Substituted phenylheterocyclic herbicides” (Mississippi State University, priority 1992, dated 2002).
# Tests used:
# Assay in all cases: Test G preemergence/postemergence greenhouse plant response rating 0 to 100
# yellow nutsedge = assay type: in vivo, Cyperus esculentus; conditions: Rate 125 g/ha, 0 to 100 scale
# From the text: (§1) Seeds, rhizomes, or plant parts of alfalfa (Medicago ativa), annual bluegrass (Poa annua), bermudagrass (Cynodon dactylon), broadleaf signalgrass (Brachiaria plantaginea), common purslane (Portulaca oleracea), common ragweed (Ambrosia elatior), […] (Paspalum dilatatum), goosegrass (Eleusine indica), guineagrass (Panicum maximum), […] exaltata), johnsongrass (Sorghum halepense), large crabgrass (Digitaria sanguinalis), peanut (Arachis hypoagaea), pitted morningglory (Ipomoea lacunosa), purple nutsedge (Cyperus rotundus), sandbur (Cenchrus echinatus), smooth crabgrass (Digitaria ischaemum) and yellow nutsedge (Cyperus esculentus) were planted into greenhouse pots containing greenhouse planting medium. Each pot contained only one plant species. The test compound was dissolved in a non-phytotoxic solvent and applied preemergence and/or postemergence to the plants. Preemergence applications were made within one day of planting the seeds or plant parts. Postemergence applications were applied when the plants were in the two to four leaf stage (three to twenty cm). Test chemicals were dissolved in a non-phytotoxic solvent and applied preemergence and postemergence to the plants. Untreated control plants and treated plants were placed in the greenhouse and visually evaluated for injury at 13 to 21 days after herbicide application. […] A dash (-) response indicates no test result.
# large crabgrass = assay type: in vivo, Digitaria sanguinalis; conditions: 0 to 100 scale
# From the text: as §1
# goosegrass = assay type: in vivo, Eleusine indica; conditions: 0 to 100 scale
# From the text: as §1
# common ragweed = assay type: in vivo, Ambrosia elatior; conditions: 0 to 100 scale
# From the text: as §1
# pitted morningglory = assay type: in vivo, Ipomoea lacunosa; conditions: 0 to 100 scale
# From the text: as §1
# peanut = assay type: in vivo, Arachis hypoagaea; conditions: 0 to 100 scale
# From the text: as §1
# annual bluegrass = assay type: in vivo, Poa annua; conditions: 0 to 100 scale
# From the text: as §1
# guineagrass = assay type: in vivo, Panicum maximum; conditions: 0 to 100 scale
# From the text: as §1
# smooth crabgrass = assay type: in vivo, Digitaria ischaemum; conditions: 0 to 100 scale
# From the text: as §1
# broadleaf signalgrass = assay type: in vivo, Brachiaria plantaginea; conditions: 0 to 100 scale
# From the text: as §1
# bermudagrass = assay type: in vivo, Cynodon dactylon; conditions: 0 to 100 scale
# From the text: as §1
# itchgrass = assay type: in vivo, Rottboellia exaltata; conditions: 0 to 100 scale
# From the text: as §1
# sandbur = assay type: in vivo, Cenchrus echinatus; conditions: 0 to 100 scale
# From the text: as §1
# common purslane = assay type: in vivo, Portulaca oleracea; conditions: 0 to 100 scale
# From the text: as §1
# johnsongrass = assay type: in vivo, Sorghum halepense; conditions: 0 to 100 scale
# From the text: as §1
# dallisgrass = assay type: in vivo, Paspalum dilatatum; conditions: 0 to 100 scale
# From the text: as §1
structure (smiles),measurement,setting,value
COC(=O)C(C)Oc1cc(-c2nn3c(c2Cl)CCCC3)c(F)cc1Cl (centres unmarked) [Compound 28],"Plant response rating, Yellow Nutsedge",yellow nutsedge; POSTEMERGENCE,0
same,"Plant response rating, Yellow Nutsedge",yellow nutsedge; PREEMERGENCE,0
same,"Plant response rating, Large Crabgrass","large crabgrass; POSTEMERGENCE, Rate 125 g/ha",0
same,"Plant response rating, Large Crabgrass","large crabgrass; POSTEMERGENCE, Rate 250 g/ha",0
same,"Plant response rating, Large Crabgrass","large crabgrass; PREEMERGENCE, Rate 125 g/ha",0
same,"Plant response rating, Large Crabgrass","large crabgrass; PREEMERGENCE, Rate 250 g/ha",0
same,"Plant response rating, Goosegrass","goosegrass; POSTEMERGENCE, Rate 125 g/ha",0
same,"Plant response rating, Goosegrass","goosegrass; POSTEMERGENCE, Rate 250 g/ha",0
same,"Plant response rating, Goosegrass","goosegrass; PREEMERGENCE, Rate 125 g/ha",0
same,"Plant response rating, Goosegrass","goosegrass; PREEMERGENCE, Rate 250 g/ha",0
same,"Plant response rating, Cmn Ragweed","common ragweed; POSTEMERGENCE, Rate 125 g/ha",100
same,"Plant response rating, Cmn Ragweed","common ragweed; POSTEMERGENCE, Rate 250 g/ha",60
same,"Plant response rating, Cmn Ragweed","common ragweed; PREEMERGENCE, Rate 125 g/ha",0
same,"Plant response rating, Cmn Ragweed","common ragweed; PREEMERGENCE, Rate 250 g/ha",0
same,"Plant response rating, Pit Morninglory","pitted morningglory; POSTEMERGENCE, Rate 125 g/ha",0
same,"Plant response rating, Pit Morninglory","pitted morningglory; POSTEMERGENCE, Rate 250 g/ha",0
same,"Plant response rating, Pit Morninglory","pitted morningglory; PREEMERGENCE, Rate 125 g/ha",0
same,"Plant response rating, Pit Morninglory","pitted morningglory; PREEMERGENCE, Rate 250 g/ha",0
same,"Plant response rating, Peanuts","peanut; POSTEMERGENCE, Rate 125 g/ha",0
same,"Plant response rating, Peanuts","peanut; POSTEMERGENCE, Rate 250 g/ha",0
same,"Plant response rating, Peanuts","peanut; PREEMERGENCE, Rate 125 g/ha",0
same,"Plant response rating, Peanuts","peanut; PREEMERGENCE, Rate 250 g/ha",0
same,"Plant response rating, Ann Bluegrass","annual bluegrass; POSTEMERGENCE, Rate 125 g/ha",0
same,"Plant response rating, Ann Bluegrass","annual bluegrass; POSTEMERGENCE, Rate 250 g/ha",0
same,"Plant response rating, Ann Bluegrass","annual bluegrass; PREEMERGENCE, Rate 125 g/ha",0
same,"Plant response rating, Ann Bluegrass","annual bluegrass; PREEMERGENCE, Rate 250 g/ha",0
same,"Plant response rating, Guineagrass","guineagrass; POSTEMERGENCE, Rate 125 g/ha",0
same,"Plant response rating, Guineagrass","guineagrass; POSTEMERGENCE, Rate 250 g/ha",0
same,"Plant response rating, Guineagrass","guineagrass; PREEMERGENCE, Rate 125 g/ha",0
same,"Plant response rating, Guineagrass","guineagrass; PREEMERGENCE, Rate 250 g/ha",0
same,"Plant response rating, Smooth Crabgras","smooth crabgrass; POSTEMERGENCE, Rate 125 g/ha",0
same,"Plant response rating, Smooth Crabgras","smooth crabgrass; POSTEMERGENCE, Rate 250 g/ha",0
same,"Plant response rating, Smooth Crabgras","smooth crabgrass; PREEMERGENCE, Rate 125 g/ha",0
same,"Plant response rating, Smooth Crabgras","smooth crabgrass; PREEMERGENCE, Rate 250 g/ha",0
same,"Plant response rating, Brdlf Sgnlgrass","broadleaf signalgrass; POSTEMERGENCE, Rate 125 g/ha",0
same,"Plant response rating, Brdlf Sgnlgrass","broadleaf signalgrass; POSTEMERGENCE, Rate 250 g/ha",0
same,"Plant response rating, Brdlf Sgnlgrass","broadleaf signalgrass; PREEMERGENCE, Rate 125 g/ha",0
same,"Plant response rating, Brdlf Sgnlgrass","broadleaf signalgrass; PREEMERGENCE, Rate 250 g/ha",0
same,"Plant response rating, Bermudagrass","bermudagrass; POSTEMERGENCE, Rate 125 g/ha",0
same,"Plant response rating, Bermudagrass","bermudagrass; POSTEMERGENCE, Rate 250 g/ha",0
same,"Plant response rating, Bermudagrass","bermudagrass; PREEMERGENCE, Rate 125 g/ha",0
same,"Plant response rating, Bermudagrass","bermudagrass; PREEMERGENCE, Rate 250 g/ha",0
same,"Plant response rating, Itchgrass","itchgrass; POSTEMERGENCE, Rate 125 g/ha",0
same,"Plant response rating, Itchgrass","itchgrass; POSTEMERGENCE, Rate 250 g/ha",0
same,"Plant response rating, Itchgrass","itchgrass; PREEMERGENCE, Rate 125 g/ha",0
same,"Plant response rating, Itchgrass","itchgrass; PREEMERGENCE, Rate 250 g/ha",0
same,"Plant response rating, S. Sandbur","sandbur; POSTEMERGENCE, Rate 125 g/ha",0
same,"Plant response rating, S. Sandbur","sandbur; POSTEMERGENCE, Rate 250 g/ha",0
same,"Plant response rating, S. Sandbur","sandbur; PREEMERGENCE, Rate 125 g/ha",0
same,"Plant response rating, S. Sandbur","sandbur; PREEMERGENCE, Rate 250 g/ha",0
same,"Plant response rating, Cmn Purslane","common purslane; POSTEMERGENCE, Rate 125 g/ha",30
same,"Plant response rating, Cmn Purslane","common purslane; POSTEMERGENCE, Rate 250 g/ha",60
same,"Plant response rating, Cmn Purslane","common purslane; PREEMERGENCE, Rate 125 g/ha",0
same,"Plant response rating, Cmn Purslane","common purslane; PREEMERGENCE, Rate 250 g/ha",0
same,"Plant response rating, Johnsongrass","johnsongrass; POSTEMERGENCE, Rate 125 g/ha",0
same,"Plant response rating, Johnsongrass","johnsongrass; POSTEMERGENCE, Rate 250 g/ha",0
same,"Plant response rating, Johnsongrass","johnsongrass; PREEMERGENCE, Rate 125 g/ha",0
same,"Plant response rating, Johnsongrass","johnsongrass; PREEMERGENCE, Rate 250 g/ha",0
same,"Plant response rating, Dallisgrass","dallisgrass; POSTEMERGENCE, Rate 125 g/ha",0
same,"Plant response rating, Dallisgrass","dallisgrass; POSTEMERGENCE, Rate 250 g/ha",0
same,"Plant response rating, Dallisgrass","dallisgrass; PREEMERGENCE, Rate 125 g/ha",0
same,"Plant response rating, Dallisgrass","dallisgrass; PREEMERGENCE, Rate 250 g/ha",0
